# How the values were obtained:
# [1] = system: KPL-4 human breast carcinoma xenograft; assay: Antitumor activity in KPL-4 orthotopic xenograft in athymic nude mice, combination with pertuzumab (Example 2); type: in vivo; settings: monotherapy 3, 4 or 6 mg/kg; day 21
# Description: The KPL-4 human breast carcinoma cell line was kindly donated by Prof. Kurebayashi, Kawasaki Medical Center. The cells were cultured in Dulbecco's MEM (Sigma Chemical Co.) supplemented with 5% (v/v) fetal bovine serum (Roche Diagnostics).
# One hundred (100) 5-week-old female athymic nude mice (BALB/c nu/nu) were purchased from Charles River Japan, Inc. (Yokohama, Japan). The mice were housed in an air-conditioned room (temperature 22±2° C., relative humidity 55±10%) under 12 h light/dark cycles. The mice were given sterilized CE-2 and tap water with 25μg/mL gentamycin ad libitum. […]
# The In vivo evaluation procedure for anticancer drugs was based on methods described by Plowman, et al. (1997) for xenograft models. […] The tumor volume and body weight of each mouse were measured twice a week. […] One week after the final injection, tumor growth inhibition (TGI) was calculated using the formula (1-T/C)×100 (%), where T (treated group) and C (control group) represent the mean tumor volume change. ED50 values were calculated from values of tumor growth inhibition on day 21 using the XL fit program. […]
# Packaged software (SAS preclinical package version 5.0, SAS Institute Japan, Ltd.) was used for the statistical analysis. […] ED50s were calculated from values of tumor growth inhibition percentage using XL fit program #509 (MS Excel Add-In: XLfit3 Version 3.0.5 Build 12, ID Business Solutions Ltd.)
# [2] = system: NCI-H460 human large cell lung carcinoma xenograft; assay: Antitumor activity in NCI-H460 subcutaneous xenograft in athymic nude mice, combination with cisplatin (Example 4); type: in vivo; settings: day 12
# Description: The NCI-H460 human large cell lung carcinoma cell line was purchased from American Type Culture Collection (MD, U.S.A.). The cells were cultured in RPMI-1640 medium (cat. # R8758, lot 12K2310, exp 01/03; lot 82K2497, exp 08/03; Sigma-Aldrich corporation, MO, U.S.A.) supplemented with 10% (v/v) fetal bovine serum (cat. # 047115, lot # 31300124; Roche Diagnostics KK, Tokyo, Japan).
# Sixty of 5-week-old male athymic nude mice (BALB/c nu/nu) were purchased from Charles River Japan, Inc. (Yokohama, Japan). All mice were kept for 8 days in the animal facility of Kamakura Research Laboratories of Chugai Pharmaceutical Co., Ltd. before subjection to the experiment.
# The title compound was synthesized at Kamakura Research Laboratories of Chugai Pharmaceutical Co., Ltd. CDDP (Randa™, lot # 924150) was obtained from Nippon Kayaku Co., Ltd. (Tokyo, Japan). The title compound was dissolved in dimethyl sulfoxide (DMSO) and diluted into 2.5 % DMSO solution with saline (for Injection; Ohtsuka Pharmaceutical Industry Co., Ltd., Tokushima, Japan) at the date of administration. CDDP was diluted with saline at the date of administration.
# The in vivo evaluation procedure for anticancer drugs was based on the methods described by Plowman, et al. (1997) for xenograft models. See, “Anticancer Drug Development Guide: Preclinical Screening, Clinical Trials, and Approval, Teicher B (ed) pp. 101-125, specifically Chap. 6, “Human Tumor Xenograft Models in NCI Drug Development”, hereby incorporated by reference. A single cell suspension of NCI-H460 (5.6×10^6 cells per mouse) was inoculated subcutaneously into the right flank of each mouse. The tumor volume was estimated by using the equation ab^2/2, where a and b represent tumor length and width, respectively. Mice bearing tumors of between 150 and 245 mm^3 were selected on day 7 after tumor inoculation and were randomly divided into 8 groups, consisting of 5 mice each. Mean tumor volume and body weight of the selected mice were 187 mm3 and 24.3 g, respectively. Drug administration was initiated after mice were divided into groups. The title compound (2 mg/kg or 3 mg/kg), CDDP (5 mg/kg or 6.7 mg/kg) and each vehicle were administered intravenously. Tumor volume and body weight of each mouse were measured twice a week. […] Tumor growth inhibition was calculated using the equation (1-ΔT/ΔC)×100, where ΔT represents the difference in tumor volume from the initial treatment date of the treated group and ΔC represents the difference in tumor volume from the initial treatment date of the vehicle group.
smiles,measurement,setting,value
"CC[C@H](C)[C@@H]([C@@H](CC(=O)N1CCC[C@H]1[C@H](SC)[C@@H](C)C(=O)N(C)CCc1cccc(O)c1)OC)N(C)C(=O)[C@@H](NC(=O)[C@H](C(C)C)N(C)C)C(C)C [compound of formula (I-A), N-[1-({1-sec-Butyl-4-[2-(2-{[2-(3-hydroxy-phenyl)-ethyl]-methyl-carbamoyl}-1-methylsulfanyl-propyl)-pyrrolidin-1-yl]-2-methoxy-4-oxo-butyl}-methyl-carbamoyl)-2-methyl-propyl]-2-dimethylamino-3-methyl-butyramide]",volume of tumor in comparison with control,[1],decreased strongly
same,reduction of tumor growth,[2]; 2 mg/kg (1/3 MTD) i.v. weekly x3,45%
same,reduction of tumor growth,[2]; 3 mg/kg (1/2 MTD) i.v. weekly x3,93%
